Values after ≈ are worked out from the molar mass of the structure shown.
Experiments:
[1] = test system: Septoria tritici (ATCC 26517); assay: Minimum Inhibitory Concentration (MIC) (Septoria tritici), CLSI-based microdilution; assay type: cell-based; conditions: S. tritici ATCC 26517, 22° C. for seven days, 50% reduction in growth; for MIC: Zymoseptoria tritici, ATCC26517, 168 h, read-out: Septoria Rating (MIC)
Description: C. Minimum Inhibitory Concentration (MIC) (Septoria tritici)
Compounds of the present disclosure were assessed for their ability to inhibit the growth of a common strain of the fungal plant pathogen Septoria tritici (ATCC 26517) using a procedure based on a Clinical and Laboratory Standards Institute (CLSI) microdilution assay protocol for filamentous fungi.
Stock solutions of the test compounds and standards were prepared in DMSO at 6400 μg/mL. Each stock solution was used to prepare a 2-fold dilution series ranging from 16 to 0.016 μg/mL (total of 11 compound concentrations) in RPMI-1640 (Roswell Park Memorial Institute) medium containing 3-(N-morpholino)propanesulfonic acid (MOPS) buffer and 2% DMSO. A 100 μL aliquot of the dilutions was added to columns 1 (16 μg/mL compound) through 11 (0.016 μg/mL compound) of a 96-well microtiter plate. This format was replicated in a second row of the microtiter plate. Thus, each microtiter plate could include 11 concentrations of four test or control compounds replicated twice. A 100 μL aliquot of RPMI-1640/MOPS/2% DMSO medium was added to column 12 (no compound control) of the microtiter plate.
A fresh culture of S. tritici was used to prepare a solution of approximately 5×10^4 colony-forming units per milliliter (cfu/mL) in RPMI/MOPS medium without DMSO. A 100 µL aliquot of this solution was added to all 96 wells in the microtiter plate. […] The assay plates were incubated at 22° C. for seven days in the dark without shaking.
In each case of Table 3 the Septoria rating scale is as follows: […]

[2] = test system: Puccinia recondita tritici = Puccinia triticina; assay: Fungicidal activity vs. leaf rust on wheat plants; assay type: in vivo; conditions: wheat (variety Yuma) sprayed at 50 ppm, inoculated on the following day, evaluated 7-9 days later; read-out: Puccinia Rating (% Disease Control @ 50 ppm)
Description: D. Evaluation of Fungicidal Activity Vs. Leaf Rust (Causal Agent Puccinia recondita tritici=Puccinia triticina; Bayer Code PUCCRT). […] Each pot contained 3-8 seedlings. These plants were sprayed until wet with the formulated test compounds. The compounds were formulated at 50 ppm in 10 vol. % acetone plus 90 vol. % Triton X water (deionized water 99.99 wt %+0.01 wt % Triton X100), giving a “formulated test compound.” Formulated test compounds were applied to plants using a turn table sprayer fitted with two opposing air atomization nozzles which delivered approximately 1500 L/ha of spray volume. On the following day, the leaves were inoculated with an aqueous spore suspension of Puccinia recondita tritici and the plants were kept in high humidity overnight to permit spores to germinate and infect the leaf. The plants were then transferred to a greenhouse until disease developed on untreated control plants. Disease severity was evaluated 7-9 days later, depending on the speed of disease development. In each case of Table 3, the Puccinia rating scale is as follows: […]

SMILES | MIC [1] [µg/mL] | Septoria Rating (MIC) [1] | pest or weed control at 50 ppm [2] [%]
OC(Cn1cnnn1)(c1ccc(F)cc1F)C(F)(F)c1ccc(CC(F)(F)F)cn1 (stereo not shown) [Compound 17, 2-(2,4-Difluorophenyl)-1,1-difluoro-3-(1H-tetrazol-1-yl)-1-(5-(2,2,2-trifluoroethyl)pyridin-2-yl)propan-2-ol] | ≤ 0.5 |  | 80 to 100
COc1ccc(-c2ccc(C(F)(F)C(O)(Cn3cnnn3)c3ccc(F)cc3F)nc2)s1 (stereo not shown) [Compound 32, 2-(2,4-Difluorophenyl)-1,1-difluoro-1-(5-(5-methoxythiophen-2-yl)pyridin-2-yl)-3-(1H-tetrazol-1-yl)propan-2-ol] | ≤ 0.5 |  | 40 to 59
OC(Cc1cc[nH]n1)(c1ccc(F)cc1F)C(F)(F)c1ccc(Br)cn1 (stereo not shown) [Compound 62, 1-(5-Bromopyridin-2-yl)-2-(2,4-difluorophenyl)-1,1-difluoro-3-(1H-pyrazol-3-yl)propan-2-ol] | ≤ 0.5 |  | 
OC(Cc1cc[nH]n1)(c1ccc(F)cc1F)C(F)(F)c1ccc(-n2ccnn2)cn1 (stereo not shown) [Compound 64, 1-(5-(1H-1,2,3-Triazol-1-yl)pyridin-2-yl)-2-(2,4-difluorophenyl)-1,1-difluoro-3-(1H-pyrazol-3-yl)propan-2-ol] | > 4 |  | 
OC(Cc1cn[nH]c1)(c1ccc(F)cc1F)C(F)(F)c1ccccn1 (stereo not shown) [Compound 65, 2-(2,4-Difluorophenyl)-1,1-difluoro-3-(1H-pyrazol-4-yl)-1-(pyridin-2-yl)propan-2-ol] | 1.5 to 4 (≈ 4.27 to 11.4 µM) |  | 
O=C(c1ccc(C(F)(F)C(O)(Cn2cnnn2)c2ccc(F)cc2F)nc1)c1ccc(F)c(F)c1 (stereo not shown) [Compound 70, (3,4-Difluorophenyl)(6-(2-(2,4-difluorophenyl)-1,1-difluoro-2-hydroxy-3-(1H-tetrazol-1-yl)propyl)pyridin-3-yl)methanone] | ≤ 0.5 |  | 
OC(c1ccc(C(F)(F)F)cc1)c1ccc(C(F)(F)C(O)(Cn2cnnn2)c2ccc(F)cc2F)nc1 (stereo not shown) [Compound 72, 2-(2,4-Difluorophenyl)-1,1-difluoro-1-(5-(hydroxy(4-(trifluoromethyl)phenyl)methyl)pyridin-2-yl)-3-(1H-tetrazol-1-yl)propan-2-ol] | 1.5 to 4 (≈ 2.84 to 7.58 µM) |  | 
OC(Cn1cnnn1)(c1ccc(F)cc1F)C(F)(F)c1ccc(-c2ccc(Br)s2)cn1 (stereo not shown) [Compound 78, 1-(5-(5-Bromothiophen-2-yl)pyridin-2-yl)-2-(2,4-difluorophenyl)-1,1-difluoro-3-(1H-tetrazol-1-yl)propan-2-ol] | ≤ 0.5 |  | 
N#Cc1ccc(OCc2ccc(C(F)(F)C(O)(Cn3ncnn3)c3ccc(F)cc3F)nc2)cc1 (stereo not shown) [Compound 80, 4-((6-(2-(2,4-Difluorophenyl)-1,1-difluoro-2-hydroxy-3-(2H-tetrazol-2-yl)propyl)pyridin-3-yl)methoxy)benzonitrile] | > 4 |  | 
CC(F)(c1ccc(Br)cn1)C(O)(Cn1cnnn1)c1ccc(F)cc1F (stereo not shown) [Compound 84, 3-(5-Bromopyridin-2-yl)-2-(2,4-difluorophenyl)-3-fluoro-1-(1H-tetrazol-1-yl)butan-2-ol] | 1.5 (≈ 3.5 µM) |  | 
CC(F)(c1ccc(Br)cn1)C(O)(Cn1cnnn1)c1ccc(F)cc1F (stereo not shown) [Compound 85, 3-(5-Bromopyridin-2-yl)-2-(2,4-difluorophenyl)-3-fluoro-1-(1H-tetrazol-1-yl)butan-2-ol] |  | C (>1.5-4) | 
OC(Cc1cncs1)(c1ccc(F)cc1F)C(F)(F)c1ccccn1 (stereo not shown) [Compound 86, 2-(2,4-Difluorophenyl)-1,1-difluoro-1-(pyridin-2-yl)-3-(thiazol-5-yl)propan-2-ol] | ≤ 0.5 |  | 
CC(C)OCc1ccc(C(F)(F)C(O)(Cn2cnnn2)c2ccc(F)cc2F)nc1 (stereo not shown) [Compound 91, 2-(2,4-difluorophenyl)-1,1-difluoro-1-(5-(isopropoxymethyl)pyridin-2-yl)-3-(1H-tetrazol-1-yl)propan-2-ol] | 1.5 (≈ 3.53 µM) |  | 

Second part, led by results:

MIC [1] [µg/mL] | Septoria Rating (MIC) [1] | SMILES | pest or weed control at 50 ppm [2] [%]
≤ 0.5 |  | OC(Cn1cnnn1)(c1ccc(F)cc1F)C(F)(F)c1ccccn1 (stereo not drawn) [2(−), 2-(2,4-Difluorophenyl)-1,1-difluoro-1-(pyridin-2-yl)-3-(1H-tetrazol-1-yl)propan-2-ol] | 80 to 100
≤ 0.5 |  | OC(Cn1cnnn1)(c1ccc(F)cc1F)C(F)(F)c1ccc(Br)cn1 (stereo not shown) [Compound 1, 1-(5-Bromopyridin-2-yl)-2-(2,4-difluorophenyl)-1,1-difluoro-3-(1H-tetrazol-1-yl)propan-2-ol] | 80 to 100
1.5 (≈ 4.04 µM) |  | OC(Cn1cnnn1)(c1ccc(F)cc1F)C(F)(F)c1ccc(F)cn1 (stereo not shown) [Compound 10, 2-(2,4-Difluorophenyl)-1,1-difluoro-1-(5-fluoropyridin-2-yl)-3-(1H-tetrazol-1-yl)propan-2-ol] | 80 to 100
≤ 0.5 |  | OC(Cn1cnnn1)(c1ccc(F)cc1F)C(F)(F)c1ccc(C2CC2)cn1 (stereo not shown) [Compound 18, 1-(5-Cyclopropylpyridin-2-yl)-2-(2,4-difluorophenyl)-1,1-difluoro-3-(1H-tetrazol-1-yl)propan-2-ol] | 80 to 100
≤ 0.5 |  | OC(Cn1cnnn1)(c1ccc(Cl)cc1F)C(F)(F)c1ccc(Br)cn1 (stereo not shown) [Compound 22, 1-(5-Bromopyridin-2-yl)-2-(4-chloro-2-fluorophenyl)-1,1-difluoro-3-(1H-tetrazol-1-yl)propan-2-ol] | 80 to 100
1.5 (≈ 4.08 µM) |  | Cc1ccc(C(F)(F)C(O)(Cn2cnnn2)c2ccc(F)cc2F)nc1 (stereo not shown) [Compound 25, 2-(2,4-Difluorophenyl)-1,1-difluoro-1-(5-methylpyridin-2-yl)-3-(1H-tetrazol-1-yl)propan-2-ol] | 80 to 100
≤ 0.5 |  | OC(Cn1cnnn1)(c1ccc(Cl)cc1F)C(F)(F)c1ccc(Cl)cn1 (stereo not shown) [Compound 26, 2-(4-Chloro-2-fluorophenyl)-1-(5-chloropyridin-2-yl)-1,1-difluoro-3-(1H-tetrazol-1-yl)propan-2-ol] | 80 to 100
1.5 (≈ 3.87 µM) |  | OC(Cn1cnnn1)(c1ccc(Cl)cc1F)C(F)(F)c1ccc(F)cn1 (stereo not shown) [Compound 27, 2-(4-Chloro-2-fluorophenyl)-1,1-difluoro-1-(5-fluoropyridin-2-yl)-3-(1H-tetrazol-1-yl)propan-2-ol] | 80 to 100
≤ 0.5 |  | OC(Cn1cnnn1)(c1ccc(Cl)cc1F)C(F)(F)c1ccc(-n2nccn2)cn1 (stereo not shown) [Compound 28, 1-(5-(2H-1,2,3-Triazol-2-yl)pyridin-2-yl)-2-(4-chloro-2-fluorophenyl)-1,1-difluoro-3-(1H-tetrazol-1-yl)propan-2-ol] | 80 to 100
≤ 0.5 |  | OC(Cn1cncn1)(c1ccc(F)cc1F)C(F)(F)c1ccc(Cl)cn1 (stereo not shown) [Compound 29, 1-(5-Chloropyridin-2-yl)-2-(2,4-difluorophenyl)-1,1-difluoro-3-(1H-1,2,4-triazol-1-yl)propan-2-ol] | 80 to 100
1.5 (≈ 3.59 µM) |  | OC(Cc1cc[nH]n1)(c1ccc(F)cc1F)C(F)(F)c1ccc(-n2nccn2)cn1 (stereo not shown) [Compound 63, 1-(5-(2H-1,2,3-Triazol-2-yl)pyridin-2-yl)-2-(2,4-difluorophenyl)-1,1-difluoro-3-(1H-pyrazol-3-yl)propan-2-ol] | 
1.5 to 4 (≈ 2.92 to 7.78 µM) |  | OC(Cn1cnnn1)(c1ccc(F)cc1F)C(F)(F)c1ccc(C(F)(F)c2ccc(Cl)cc2)cn1 (stereo not shown) [Compound 74, 1-(5-((4-Chlorophenyl)difluoromethyl)pyridin-2-yl)-2-(2,4-difluorophenyl)-1,1-difluoro-3-(1H-tetrazol-1-yl)propan-2-ol] | 
1.5 to 4 (≈ 3.42 to 9.12 µM) |  | OC(Cn1cnnn1)(c1ccc(F)cc1F)C(F)(F)c1ccc(N2CCOCC2)cn1 (stereo not shown) [Compound 81, 2-(2,4-Difluorophenyl)-1,1-difluoro-1-(5-morpholinopyridin-2-yl)-3-(1H-tetrazol-1-yl)propan-2-ol] | 
1.5 to 4 (≈ 3.44 to 9.17 µM) |  | OC(Cn1cnnn1)(c1ccc(F)cc1F)C(F)(F)c1ccc(N2CCCCC2)cn1 (stereo not shown) [Compound 82, 2-(2,4-Difluorophenyl)-1,1-difluoro-1-(5-(piperidin-1-yl)pyridin-2-yl)-3-(1H-tetrazol-1-yl)propan-2-ol] | 
≤ 0.5 |  | OC(Cn1cnnn1)(c1ccc(F)cc1F)C(F)(F)c1ccc(Cc2ccc(Cl)nc2)cn1 (stereo not shown) [Compound 97, 1-(5-((6-chloropyridin-3-yl)methyl)pyridin-2-yl)-2-(2,4-difluorophenyl)-1,1-difluoro-3-(1H-tetrazol-1-yl)propan-2-ol] | 
